From patent publication US5478825A, “5-(substituted amino)-1,2,4-triazolo (1,5-A) pyrimidine derivatives” (Egis Gyogyszergyar, priority 1991, dated 1995) come the findings set out here.

One experiment has as its system gastric acid secretion. Briefly: Gastric acid secretion test. The class given is in vivo, rat. As to the method:
8. […] Rats of both sexes (Wistar breed, weighing 180-240 g) were fastened for 48 hours. On the day of the test the pylorus of the animals was bound under ether narcosis. The test compounds were administered orally 3 hours before the operation. 4 hours after the operation the animals were anaesthetized and the stomach was removed, the content thereof was centrifuged and the amount of the free acid was determined by titration, in the presence of Topfer reagent. The inhibition in relation to the control is calculated in percentage.

The test system of another experiment is hexobarbital narcosis. Briefly: Narcosis potentiating activity (hexobarbital). It is filed as in vivo, mice. The note with it: for Narcosis potentiating effect: 100 mg/kg, orally, frequency of positive reaction, hexobarbital 40 mg/kg i.v. As to the method:
6. Narcosis potentiating activity
Groups consisting of 6 mice each were orally treated with the compound to be examined. After one hour, hexobarbital [5-(1-cyclohexenyl)-1,5-dimethylbarbituric acid] was injected intravenously at a dosage of 40 mg/kg. The control group was treated only with hexobarbital to provoke sleep. The duration of sleep was recorded. If the duration of sleep of an animal exceeded that of the mean value of the control group by a factor of 2.5, it was considered as a positive reaction. The frequency of the positive reaction is expressed as the percentage of the value obtained for the control animals.

For another experiment, the system named is motility of mice. The experiment in a line: Motility inhibiting activity. It is filed as in vivo. The note with it: for Change in motility vs control: 100 mg/kg, orally. As to the method: 5. Motility inhibiting activity
The tests were performed according to the method of Borsy et al. [Arch. Int. Pharmacodyn. 124, 1-2 (1960)]. Groups consisting of 3 mice each were treated orally with different doses of the compounds to be tested. Then the test animals were placed in a Dews equipment. In this equipment the number of interruptions of infrared beam within 30 minutes was counted. The inhibition is expressed as the percentage of the value obtained for the control animals.

A further experiment concerns pentetrazole spasm. Briefly: Spasmolytic activity on mice (pentetrazole spasm). The class given is in vivo. The note with it: orally; for Inhibition of pentetrazole spasm: 100 mg/kg, pentetrazole 125 mg/kg i.p. As to the method:
7. Spasmolytic activity on mice
The tests were carried out according to the modified method of Benzinger and Hane [Arch. Int. Pharmacodyn. 167, 245-249 (1959)]. Mice of both sexes (NMRI breed, body weight 20-25 g) were treated orally with the compounds to be tested. One hour after the administration pentetrazole (6,7,8,9-tetrahydro-5H-tetrazoloazepine) was given intraperitoneally in a dosis of 125 mg/kg. The tonic-extensoric spasms on the hind limbs were registered. As reference compound 3,5,5-trimethyl-oxazolidine-2,4-dione (trimetadione) was used.

The subject of experiment [1] is rats (vasopressin induced coronaria insufficiency). The experiment in a line: Antianginal effect in rats (vasopressin induced coronaria insufficiency). It is filed as in vivo. The following applies: Rattus norvegicus, iv; i.v. 2 minutes prior to vasopressin; T wave in ECG. The protocol:
3.a) Antianginal effect in rats
Rats weighing 180-220 g were narcotized with chloralose-urethane (70/700 mg/kg i.p.). The ECG was registered with needle electrodes in standard II leading. The experimental coronaria insufficiency was induced with vasopressin (1 NE/kg i.v.). The height of T wave in ECG was measured before and after the administration of vasopressin in both the control and treated groups. Test compounds were administered intravenously 2 minutes prior to the treatment with vasopressin.

As a reminder, the ED50 is the dose at which the effect has come halfway, by size or by number of responders.

For the compound `CN/C(=N/CCSCc1nc[nH]c1C)NC#N` [Cimetidine, reference compound], the “Inhibition (gastric acid secretion)” value in the experiment with gastric acid secretion (200 mg/kg p.o.) came to 91%. As to `CCN(CC)c1c2c(nc3nc(SC)nn13)CCC2` [Example 1, 5-(Diethylamino)-2-(methylthio)-6,7-dihydro-8H-cyclopenta[d]-1,2,4-triazolo[1,5-a]pyrimidine], the “Inhibition (gastric acid secretion)” value in the experiment with gastric acid secretion (200 mg/kg p.o.) is on record as 75%. For the compound `OCCN(CCO)c1c2c(nc3nc(N4CCOCC4)nn13)CCC2` [Example 11, 5-[N-bis(2-Hydroxyethyl)]amino-2-morpholino-6,7-dihydro-8H-cyclopenta[d]-1,2,4-triazolo[1,5-a]pyrimidine], the Narcosis potentiating effect with hexobarbital narcosis is listed as 67%. For `C1Cc2nc3nc(N4CCOCC4)nn3c(N3CCOCC3)c2C1` [Example 15, 2,5-Dimorpholino-6,7-dihydro-8H-cyclopenta[d]-1,2,4-triazolo[1,5-a]pyrimidine], in the experiment on motility of mice, the “Change in motility vs control” value is listed as -65%. In the experiment on pentetrazole spasm, the “Inhibition of pentetrazole spasm” value is reported as -50%. In turn, `C1CCN(c2c3c(nc4nc(N5CCOCC5)nn24)CCC3)CC1` [Example 16, 2-Morpholino-5-piperidino-6,7-dihydro-8H-cyclopenta[d]-1,2,4-triazolo[1,5-a]pyrimidine] showed an ED50 in experiment [1] of 1.52 mg/kg. The “Change in motility vs control” value in the experiment with motility of mice was -53%.

Regarding `CSc1nc2nc3c(c(NCCN4CCOCC4)n2n1)CCCC3` [Example 18, 2-(Methylthio)-5-[N-(2-morpholinoethyl)]amino-6,7,8,9-tetrahydro-1,2,4-triazolo[5,1-b]quinazoline], in the experiment with pentetrazole spasm, the “Inhibition of pentetrazole spasm” value is listed as -56%. Regarding `Cc1cc(N(CCO)Cc2ccccc2)n2nc(N3CCOCC3)nc2n1` [Example 24, 5-[N-Benzyl-N-(2-hydroxyethyl)]amino-7-methyl-2-morpholino-1,2,4-triazolo[1,5-a]pyrimidine], in the experiment with hexobarbital narcosis, the Narcosis potentiating effect was determined as 67%. For `CCCC(C)(COC(N)=O)COC(N)=O` [Meprobamate, reference compound], the ED50 with motility of mice (Mus musculus, po, read-out: ED50 (motility inhibition)) came to 232 mg/kg; in the experiment on hexobarbital narcosis (Mus musculus, po, read-out: ED50 (narcosis potentiating effect)), 260 mg/kg. Moreover, the “motility inhibition (in words)” value with motility of mice (dose of 100 mg/kg) was “inactive”. Further, the “narcosis potentiating effect (in words)” value with hexobarbital narcosis (dose of 100 mg/kg) is “inactive”.

In the case of `CN1C(=O)OC(C)(C)C1=O` [Trimetadione, 3,5,5-trimethyl-oxazolidine-2,4-dione, reference compound], in the experiment on pentetrazole spasm (Mus musculus, po, read-out: ED50 (inhibition of pentetrazole spasm)), the ED50 was 400 mg/kg. On to `COc1cc(C(=S)N2CCOCC2)cc(OC)c1OC` [Trithiozine, reference compound], for which the “Inhibition (gastric acid secretion)” value in the experiment with gastric acid secretion (400 mg/kg p.o.) is 63%.
